One test deals with C fiber afferents. The test is described as follows: Staining of the dorsal horn of the spinal cord at T2 for TRPV1, Substance P and IB4. Type of test: in vivo, rat. The protocol:
(§1) For epidural application of RTX, a small midline incision was made in the region of the T13-L1 thoracic vertebrae. Following dissection of the superficial muscles, two small holes (approximately 2 mm by 2 mm) were made in the left and right sides of the T13 vertebra. A polyethylene catheter (PE-10) was inserted into the […] via the left hole and gently advanced about 5.5-6 cm to the left T1 level at which the first injection (6 μg/mL, 10 μL) was made at a very slow speed to minimize the diffusion of RTX. Then the catheter was pulled back about 0.5 cm to left T2, T3, and T4, respectively, to perform serial injections (10 μL each) in each segment. Then the catheter was withdrawn and the same injection was repeated on the right side. A silicone gel was used to seal the hole in the T13 vertebra. The skin overlying the muscle was closed with a 3-0 polypropylene suture. Simple interrupted sutures were used to close the skin.
Neurons in the dorsal horn of the spinal cord that express SP were ablated by RTX. IB4 is an indicator of small diameter afferent nerves and SP is an indicator of neuroinflammation.

For another test, the system named is rats with induced CHF. Nature of the test: Cardiac and renal sympathetic nerve activity (CSNA, RSNA) in CHF rats. Type of test: in vivo, rat. To be noted: for cardiac sympathetic nerve activity (CSNA): CHF. The protocol: In each case, administration of vehicle or RTX and vehicle was epidural. […] Both significance measures were at the P<0.05 level.
The following Examples 1 through 9 discuss data from rats with induced CHF. The Examples show many improved indicators associated with RTX treatment in CHF subjects. The rat models provide for comparison of epidural administration of RTX against epicardial administration of RTX and against various controls. For the epicardial data, RTX was administered directly to the epicardium by swab during open surgery contemporaneously with induced myocardial infarction (coronary artery ligation).
as §1
In each case, administration of vehicle or RTX plus vehicle was epidural. […] Both significance measures were at the P<0.05 level.

For the next test, the system named is early hypertensive rats. Nature of the test: Arterial pressure in early hypertensive rat model after epidural RTX. It is filed as in vivo. The protocol: (§2) Open circles indicate the control population, while filled circles indicate the RTX-treated population. Epidural administration of RTX was by injection on Day 0, as indicated by the arrow on the graph.
(§3) The hypertensive model is a genetic spontaneously hypertensive rat (SHR). The early hypertension rats were treated at 8 weeks at age, reflecting a population in which blood pressure was only minimally elevated at the beginning of the study. Examples 10 and 11 illustrate treatment of subjects with hypertension and pre-hypertension (i.e., mild hypertension or early hypertension) and without induced CHF. For these subjects, epidural administration of RTX may be associated with an absolute reduction in blood pressure. Additionally, subjects treated with RTX may show less increase in blood pressure over time, as compared to a control population. Or, treatment may be associated with both an absolute reduction in pressure and lessened increase over time.
FIG. 13A-13C show experimental results in a study using an early-hypertensive rat model. […] Open circles indicate the control population, while filled circles indicate the RTX-treated population. Epidural administration of RTX was by injection on Day 0, as indicated by the arrow on each graph.

The subject of test [1] is spontaneously hypertensive rat (SHR). The test is described as follows: Arterial pressure in spontaneously hypertensive rat (SHR) model with established hypertension after epidural RTX. It is filed as in vivo. The protocol: as §2, §3
FIG. 14A-14C show further experimental results in a study using an (SHR) model. […] The established hypertensive rats were treated at 16 weeks at age, reflecting a population in which blood pressure was elevated at the beginning of the RTX administration. Open circles indicate the control population, while filled circles indicate the RTX-treated population. Epidural administration of RTX was by injection on Day 0, as indicated by the arrow on each graph. […] These subjects were not treated to induce myocardial infarction. The data allowed for comparison of SHR rats provided injection of the vehicle only (n=7) to those treated by injection of both vehicle and RTX (n=7).

The next test concerns the target TRPV1 (Rattus norvegicus, UniProt O35433). Nature of the test: Isolectin B4 (IB4) and TRPV1 expression in DRG neurons after epidural RTX. It is filed as in vivo. Also noted: from tissue; host or cells: rat dorsal root ganglion (DRG) neurons. To be noted: epidural RTX vs vehicle-only, FIG. 3A. The protocol: as §1
FIGS. 3A-4B show experimental results for a rat study in accordance with an embodiment of the present application.

Setting [2] is: epidural RTX at T1-T4 DRG levels.
Setting [3] is: vehicle-only continued to increase.
The mark [4] stands for this setting: established SHR, maintained throughout the study.

TRPV1, sequence (O35433 whole entry): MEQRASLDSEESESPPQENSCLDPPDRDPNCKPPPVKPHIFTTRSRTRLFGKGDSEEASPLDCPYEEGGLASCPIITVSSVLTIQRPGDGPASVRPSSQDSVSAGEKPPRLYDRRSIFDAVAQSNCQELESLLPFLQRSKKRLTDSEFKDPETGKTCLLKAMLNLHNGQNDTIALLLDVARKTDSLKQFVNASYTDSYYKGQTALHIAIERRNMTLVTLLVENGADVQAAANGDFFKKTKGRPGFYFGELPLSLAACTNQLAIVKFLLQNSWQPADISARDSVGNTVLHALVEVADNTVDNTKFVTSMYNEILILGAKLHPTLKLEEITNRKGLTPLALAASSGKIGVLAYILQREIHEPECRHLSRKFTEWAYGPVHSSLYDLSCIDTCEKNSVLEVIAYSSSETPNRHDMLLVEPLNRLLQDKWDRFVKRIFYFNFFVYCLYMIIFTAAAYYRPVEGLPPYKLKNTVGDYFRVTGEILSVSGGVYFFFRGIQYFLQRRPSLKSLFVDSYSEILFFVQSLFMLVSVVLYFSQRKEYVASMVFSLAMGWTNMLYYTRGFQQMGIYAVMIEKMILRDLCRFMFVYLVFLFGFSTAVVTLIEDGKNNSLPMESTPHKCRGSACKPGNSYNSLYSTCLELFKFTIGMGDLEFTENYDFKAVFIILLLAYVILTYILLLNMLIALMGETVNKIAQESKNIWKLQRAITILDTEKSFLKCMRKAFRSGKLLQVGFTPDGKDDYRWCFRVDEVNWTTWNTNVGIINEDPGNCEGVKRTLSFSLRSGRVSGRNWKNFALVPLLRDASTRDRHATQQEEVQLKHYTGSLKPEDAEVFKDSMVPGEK

Consider `C=C(C)[C@]12C[C@@H](C)[C@@]34O[C@](Cc5ccccc5)(O[C@@H]1[C@@H]3C=C(COC(=O)Cc1ccc(O)c(OC)c1)C[C@]1(O)C(=O)C(C)=C[C@@H]41)O2` [RTX, resiniferatoxin], for which, in the test on C fiber afferents (dorsal horn at T2, RTX vs control, FIG. 4), the “expression of TRPV1 protein” value was “reduced expression”. Moreover, in the test on C fiber afferents (setting [2]), the “ablation of SP-containing C fiber afferents (peptidergic) projecting to the dorsal horn” value is on record as “ablated almost all” and the “ablation of isolectin B4 (IB4)-positive C fiber afferents (non-peptidergic) projecting to the dorsal horn” value is reported as “a large portion”. Further, the “CHF-induced increase in basal cardiac sympathetic tone (CSNA and RSNA)” value with rats with induced CHF (CHF + epidural RTX) was “not exhibited”. Further, in the test with rats with induced CHF (CHF + epidural RTX vs non-CHF population), the “basal cardiac sympathetic tone, difference” value was “not statistically significant”. The “cardiac sympathetic nerve activity (CSNA)” value in the test on rats with induced CHF (epicardial RTX vs untreated CHF) is “substantially reduced”. The “cardiac sympathetic nerve activity (CSNA)” value with rats with induced CHF (epidural RTX vs epicardial RTX) is “substantially lower”. Also, the “cardiac sympathetic nerve activity (CSNA)” value in the test on rats with induced CHF (epidural RTX vs untreated CHF) is “substantially reduced”. Moreover, in the test on early hypertensive rats, the MAP following treatment is given as 125-130 mmHg, the “day from which MAP was significantly lower than vehicle-only” value is 20 days, the “day from which diastolic arterial pressure was significantly lower than control” value is approximately 22 days and the “day from which systolic arterial pressure was significantly lower than control” value was approximately 23 days. In the test with early hypertensive rats (epidural RTX Day 0), the “mean arterial pressure (MAP) after RTX injection” value is on record as “decreased slightly”. Also, the “systolic arterial pressure within a few days after RTX injection” value with early hypertensive rats (then returned and maintained) is listed as “decreased slightly”. Also, in the test on early hypertensive rats (setting [3]), the “diastolic arterial pressure over the study period” value is reported as “remained approximately steady” and the “mean arterial pressure (MAP) over the period of the study” value is “approximately steady”. Moreover, in test [1] (established SHR), the “day from which MAP reduction was significant vs vehicle-only” value is approximately 8 days, the “day from which diastolic arterial pressure differed significantly from vehicle-only” value is approximately 8 days and the “day from which systolic arterial pressure differed significantly from vehicle-only” value was approximately 7 days. For the same compound, the “mean arterial pressure (MAP) vs pre-injection baseline” value in test [1] (established SHR, epidural RTX, observed throughout 55-day period) is “some reduction”. For the same compound, in test [1] (setting [4]), the “diastolic arterial pressure vs pre-injection baseline” value is on record as “decrease” and the “systolic arterial pressure vs pre-injection baseline” value is “decrease”. In test [1] (established hypertensive rats), the MAP following treatment was 125-130 mmHg. Besides, the “isolectin B4 (IB4) and TRPV1 expression in DRG neurons” value at TRPV1 is reported as “reduction”.

The values are drawn from patent US20250082605A1 (priority 2016, published 2025).
